The source of these data is patent publication US20210300924A1, “5-[6-[[3-(4,5,6,7-TETRAHYDROPYRAZOLO[4,3-C]PYRIDIN-1-YL)AZETIDIN-1-YL]METHYL]MORPHOLIN-4-YL]QUINOLINE-8-CARBONITRILE DERIVATIVES AND SIMILAR COMPOUNDS AS TLR7-9 ANTAGONISTS FOR TREATING SYSTEMIC LUPUS ERYTHEMATOSUS” (Hoffmann-La Roche Inc., priority 2018, published 2021).

SMILES strings stand for the structures.

This assay addresses T1, TLR9 (Homo sapiens, UniProt Q9NR96).
T1 sequence (Q9NR96 26-1032): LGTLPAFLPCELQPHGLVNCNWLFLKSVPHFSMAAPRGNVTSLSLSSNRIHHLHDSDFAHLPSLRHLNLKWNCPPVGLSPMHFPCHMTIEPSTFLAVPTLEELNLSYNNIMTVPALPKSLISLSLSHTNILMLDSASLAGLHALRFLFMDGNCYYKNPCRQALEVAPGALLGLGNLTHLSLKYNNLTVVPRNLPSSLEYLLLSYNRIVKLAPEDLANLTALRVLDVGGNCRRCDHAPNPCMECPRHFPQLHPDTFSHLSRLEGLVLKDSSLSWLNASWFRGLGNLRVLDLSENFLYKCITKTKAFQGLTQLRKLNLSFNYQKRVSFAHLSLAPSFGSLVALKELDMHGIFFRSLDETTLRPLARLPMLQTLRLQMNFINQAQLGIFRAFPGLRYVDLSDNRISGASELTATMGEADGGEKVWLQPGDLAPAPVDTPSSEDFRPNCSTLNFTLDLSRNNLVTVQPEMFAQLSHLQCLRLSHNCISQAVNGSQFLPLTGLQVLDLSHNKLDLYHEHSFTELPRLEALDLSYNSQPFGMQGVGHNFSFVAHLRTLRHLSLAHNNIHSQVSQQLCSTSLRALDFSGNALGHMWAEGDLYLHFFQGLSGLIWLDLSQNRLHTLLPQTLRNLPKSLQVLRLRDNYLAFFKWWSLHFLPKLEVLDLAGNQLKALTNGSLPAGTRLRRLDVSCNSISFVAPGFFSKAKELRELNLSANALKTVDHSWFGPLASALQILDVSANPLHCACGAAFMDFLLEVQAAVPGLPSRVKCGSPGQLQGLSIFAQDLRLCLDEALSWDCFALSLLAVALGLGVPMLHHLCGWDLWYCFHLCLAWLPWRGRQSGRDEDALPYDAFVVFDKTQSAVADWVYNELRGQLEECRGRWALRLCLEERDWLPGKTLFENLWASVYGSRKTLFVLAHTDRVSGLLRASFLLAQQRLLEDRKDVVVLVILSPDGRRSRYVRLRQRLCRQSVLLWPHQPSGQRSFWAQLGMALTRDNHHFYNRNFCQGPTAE
Description: HEK293-Blue-hTLR-9 cells assay. Also noted: host or cells: HEK293 (HEK-Blue hTLR9). The note with it: HEK293-Blue-hTLR9 cells, ODN2006 stimulation, 20 hrs, SEAP reporter; read-out: HEK/hTLR9 IC50. Format: cell-based. The source says: HEK293-Blue-hTLR-9 Cells Assay:
A stable HEK293-Blue-hTLR-9 cell line was purchased from InvivoGen (Cat. #: hkb-htlr9, San Diego, Calif., USA). These cells were originally designed for studying the stimulation of human TLR9 by monitoring the activation of NF-κB. A SEAP (secreted embryonic alkaline phosphatase) reporter gene was placed under the control of the IFN-β minimal promoter fused to five NF-κB and AP-1-binding sites. The SEAP was induced by activating NF-κB and AP-1 via stimulating HEK-Blue hTLR9 cells with TLR9 ligands. Therefore the reporter expression was declined by TLR9 antagonist under the stimulation of a ligand, such as ODN2006 (Cat. #: tlr1-2006-1, Invivogen, San Diego, Calif., USA), for incubation of 20 hrs. The cell culture supernatant SEAP reporter activity was determined using QUANTI-Blue™ kit (Cat. #: rep-01, Invivogen, San Diego, Calif., USA) at a wavelength of 640 nm, a detection medium that turns purple or blue in the presence of alkaline phosphatase.
HEK293-Blue-hTLR9 cells were incubated at a density of 250,000-450,000 cells/mL in a volume of 170 μL in a 96-well plate in Dulbecco's Modified Eagle's medium (DMEM) containing 4.5 g/L glucose, 50 U/mL penicillin, […], 2 mM L-glutamine, 10% (v/v) heat-inactivated fetal bovine serum with addition of 20 μL test compound in a serial dilution in the presence of final DMSO at 1% and 10 μL of 20 uM ODN2006 in above DMEM, perform incubation under 37° C. in a CO2 incubator for 20 hrs. Then 20 μL of the supernatant from each well was incubated with 180 μL Quanti-blue substrate solution at 37° C. for 2 h and the absorbance was read at 620-655 nm using a spectrophotometer. The signaling pathway that TLR9 activation leads to downstream NF-κB activation has been widely accepted, and therefore similar reporter assay was modified for evaluating TLR9 antagonist.
With `Cc1c2c(nn1C1CN(C[C@H]3CN(c4ccc(C#N)c5ncccc45)C[C@@H](C)O3)C1)CCN(C)C2` [Example 15, 5-[(2S,6R)-2-[[3-(3,5-dimethyl-6,7-dihydro-4H-pyrazolo[4,3-c]pyridin-2-yl)azetidin-1-yl]methyl]-6-methyl-morpholin-4-yl]quinoline-8-carbonitrile], the IC50 was 128 nM. As to `C[C@@H]1Cc2c(cnn2C2CN(C[C@H]3CN(c4ccc(C#N)c5ncccc45)C[C@@H](C)O3)C2)CN1` [Example 16, 5-[(2R,6S)-2-methyl-6-[[3-[(6R)-6-methyl-4,5,6,7-tetrahydropyrazolo[4,3-c]pyridin-1-yl]azetidin-1-yl]methyl]morpholin-4-yl]quinoline-8-carbonitrile], the IC50 is 78 nM. With `C[C@@H]1Cc2nn(C3CN(C[C@H]4CN(c5ccc(C#N)c6ncccc56)C[C@@H](C)O4)C3)cc2CN1` [Example 17, 5-[(2R,6S)-2-methyl-6-[[3-[(6R)-6-methyl-4,5,6,7-tetrahydropyrazolo[4,3-c]pyridin-2-yl]azetidin-1-yl]methyl]morpholin-4-yl]quinoline-8-carbonitrile] the figure was 88 nM; with `C[C@@H]1CN(c2ccc(C#N)c3ncccc23)C[C@H](CN2CC(n3ncc4c3C[C@H](C)NC4)C2)O1` [Example 18, 5-[(2R,6S)-2-methyl-6-[[3-[(6S)-6-methyl-4,5,6,7-tetrahydropyrazolo[4,3-c]pyridin-1-yl]azetidin-1-yl]methyl]morpholin-4-yl]quinoline-8-carbonitrile], 147 nM; with `C[C@@H]1CN(c2ccc(C#N)c3ncccc23)C[C@H](CN2CC(n3cc4c(n3)C[C@H](C)NC4)C2)O1` [Example 19, 5-[(2R,6S)-2-methyl-6-[[3-[(6S)-6-methyl-4,5,6,7-tetrahydropyrazolo[4,3-c]pyridin-2-yl]azetidin-1-yl]methyl]morpholin-4-yl]quinoline-8-carbonitrile], 122 nM. With `C[C@@H]1CN(c2ccc(C#N)c3ncccc23)C[C@H](CN2CC(n3ncc4c3CCN[C@@H]4C)C2)O1` [Example 20, 5-[(2R,6S)-2-methyl-6-[[3-[(4R)-4-methyl-4,5,6,7-tetrahydropyrazolo[4,3-c]pyridin-1-yl]azetidin-1-yl]methyl]morpholin-4-yl]quinoline-8-carbonitrile] the figure was 76 nM. Regarding `C[C@@H]1CN(c2ccc(C#N)c3ncccc23)C[C@H](CN2CC(n3cc4c(n3)CCN[C@@H]4C)C2)O1` [Example 21, 5-[(2R,6S)-2-methyl-6-[[3-[(4R)-4-methyl-4,5,6,7-tetrahydropyrazolo[4,3-c]pyridin-2-yl]azetidin-1-yl]methyl]morpholin-4-yl]quinoline-8-carbonitrile], the IC50 is 80 nM. Take `C[C@@H]1CN(c2ccc(C#N)c3ncccc23)C[C@H](CN2CC(n3ncc4c3CCN[C@H]4C)C2)O1` [Example 22, 5-[(2R,6S)-2-methyl-6-[[3-[(4S)-4-methyl-4,5,6,7-tetrahydropyrazolo[4,3-c]pyridin-1-yl]azetidin-1-yl]methyl]morpholin-4-yl]quinoline-8-carbonitrile]: the IC50 worked out at 70 nM. With `C[C@@H]1CN(c2ccc(C#N)c3ncccc23)C[C@H](CN2CC(n3cc4c(n3)CCN[C@H]4C)C2)O1` [Example 23, 5-[(2R,6S)-2-methyl-6-[[3-[(4S)-4-methyl-4,5,6,7-tetrahydropyrazolo[4,3-c]pyridin-2-yl]azetidin-1-yl]methyl]morpholin-4-yl]quinoline-8-carbonitrile] the figure was 84 nM; with `C[C@@H]1CN(c2ccc(C#N)c3ncccc23)C[C@H](CN2CC(n3cc4c(n3)C(C)(C)CNC4)C2)O1` [Example 24, 5-[(2S,6R)-2-[[3-(7,7-dimethyl-5,6-dihydro-4H-pyrazolo[4,3-c]pyridin-2-yl)azetidin-1-yl]methyl]-6-methyl-morpholin-4-yl]quinoline-8-carbonitrile], 98 nM. With `C[C@@H]1CN(c2ccc(C#N)c3ncccc23)C[C@H](CN2CCC(n3ncc4c3CCNC4)CC2)O1` [Example 35, 5-[(2R,6S)-2-methyl-6-[[4-(4,5,6,7-tetrahydropyrazolo[4,3-c]pyridin-1-yl)-1-piperidyl]methyl]morpholin-4-yl]quinoline-8-carbonitrile] the figure was 82 nM. With `C[C@@H]1CN(c2ccc(C#N)c3ncccc23)C[C@H](CN2CCC(n3cc4c(n3)CCNC4)CC2)O1` [Example 36, 5-[(2R,6S)-2-methyl-6-[[4-(4,5,6,7-tetrahydropyrazolo[4,3-c]pyridin-2-yl)-1-piperidyl]methyl]morpholin-4-yl]quinoline-8-carbonitrile] the figure was 55 nM; with `Cc1nn(C2CN(C[C@H]3CN(c4ccc(C#N)c5ncccc45)C[C@@H](C)O3)C2)c2c1CCNC2` [Example 42, 5-[(2R,6S)-2-methyl-6-[[3-(3-methyl-4,5,6,7-tetrahydropyrazolo[3,4-c]pyridin-1-yl)azetidin-1-yl]methyl]morpholin-4-yl]quinoline-8-carbonitrile], 134 nM. Take `Cc1c2c(nn1C1CN(C[C@H]3CN(c4ccc(C#N)c5ncccc45)C[C@@H](C)O3)C1)CNCC2` [Example 43, 5-[(2R,6S)-2-methyl-6-[[3-(3-methyl-4,5,6,7-tetrahydropyrazolo[3,4-c]pyridin-2-yl)azetidin-1-yl]methyl]morpholin-4-yl]quinoline-8-carbonitrile]: the IC50 turned out to be 83 nM.
